US20200288711A1, “Pyrimidin-4-Carbamate or Urea Derivatives As Herbicides” (Syngenta Participations AG, priority 2017, published 2020)

Legend:
Type in all cases: in vivo
Setaria faberi (SETFA) [1] = assay: B1 pre-emergence herbicidal activity; design: key to Pre-emergence herbicidal activity, SETFA: 5=total damage to plant; 0=no damage to plant; conditions: Test 1b, rate 1000 g/ha, evaluated after 13 days, score 0-5 (5=total damage, 0=no damage)
Description: (§1) Seeds of a variety of test species were sown in standard soil in pots: Triticum aestivium (TRZAW), Avena fatua (AVEFA), Alopecurus myosuroides (ALOMY), Echinochloa crus-galli (ECHCG), Lolium perenne (LOLPE), Zea mays (ZEAMX), Abutilon theophrasti (ABUTH), Amaranthus retroflexus (AMARE) and Setaria faberi (SETFA). After cultivation for one day (pre-emergence) under controlled conditions in a glasshouse (at 24/16° C., day/night; 14 hours light; 65% humidity), the plants were sprayed with an aqueous spray solution derived from the formulation of the technical active ingredient in acetone/water (50:50) solution containing 0.5% Tween 20 (polyoxyethelyene sorbitan monolaurate, CAS RN 9005-64-5). The test plants were then grown in a glasshouse under controlled conditions (at 24/16° C., day/night; 14 hours light; 65% humidity) and watered twice daily. After 13 days, the test was evaluated (5=total damage to plant; 0=no damage to plant).

Avena fatua (AVEFA) [2] = assay: B1 pre-emergence herbicidal activity; design: key: 5=total damage to plant; 0=no damage to plant; conditions: Test 1b, rate 1000 g/ha, evaluated after 13 days, score 0-5 (5=total damage, 0=no damage)
Description: as §1

[3] = test system: Triticum aestivium (TRZAW); assay: B1 pre-emergence herbicidal activity; design: key: 5=total damage to plant; 0=no damage to plant; conditions: Test 1b, rate 1000 g/ha, evaluated after 13 days, score 0-5 (5=total damage, 0=no damage)
Description: as §1

Lolium perenne (LOLPE) [4] = assay: B1 pre-emergence herbicidal activity; design: key: 5=total damage to plant; 0=no damage to plant; conditions: Test 1b, rate 1000 g/ha, evaluated after 13 days, score 0-5 (5=total damage, 0=no damage)
Description: as §1

[5] = test system: Alopecurus myosuroides (ALOMY); assay: B1 pre-emergence herbicidal activity; design: key: 5=total damage to plant; 0=no damage to plant; conditions: Test 1b, rate 1000 g/ha, evaluated after 13 days, score 0-5 (5=total damage, 0=no damage)
Description: as §1

Avena fatua (AVEFA) [6] = assay: B2 post-emergence herbicidal activity; design: key: 5=total damage to plant; 0=no damage to plant; conditions: Test 2b, rate 1000 g/ha, evaluated after 13 days, score 0-5 (5=total damage, 0=no damage)
Description: (§2) Seeds of a variety of test species were sown in standard soil in pots: Triticum aestivium (TRZAW), Avena fatua (AVEFA), Alopecurus myosuroides (ALOMY), Echinochloa crus-galli (ECHCG), Lolium perenne (LOLPE), Zea mays (ZEAMX), Abutilon theophrasti (ABUTH), Amaranthus retroflexus (AMARE) and Setaria faberi (SETFA). After 8 days cultivation (post-emergence) under controlled conditions in a glasshouse (at 24/16° C., day/night; 14 hours light; 65% humidity), the plants were sprayed with an aqueous spray solution derived from the formulation of the technical active ingredient in acetone/water (50:50) solution containing 0.5% Tween 20 (polyoxyethelyene sorbitan monolaurate, CAS RN 9005-64-5). The test plants were then grown in a glasshouse under controlled conditions (at 24/16° C., day/night; 14 hours light; 65% humidity) and watered twice daily. After 13 days, the test was evaluated (5=total damage to plant; 0=no damage to plant).

[7] = test system: Echinochloa crus-galli (ECHCG); assay: B2 post-emergence herbicidal activity; design: key: 5=total damage to plant; 0=no damage to plant; conditions: Test 2b, rate 1000 g/ha, evaluated after 13 days, score 0-5 (5=total damage, 0=no damage)
Description: as §2

Setaria faberi (SETFA) [8] = assay: B2 post-emergence herbicidal activity; design: key: 5=total damage to plant; 0=no damage to plant; conditions: Test 2b, rate 1000 g/ha, evaluated after 13 days, score 0-5 (5=total damage, 0=no damage)
Description: as §2

[9] = test system: Triticum aestivium (TRZAW); assay: B2 post-emergence herbicidal activity; design: key: 5=total damage to plant; 0=no damage to plant; conditions: Test 2b, rate 1000 g/ha, evaluated after 13 days, score 0-5 (5=total damage, 0=no damage)
Description: as §2

Lolium perenne (LOLPE) [10] = assay: B2 post-emergence herbicidal activity; design: key: 5=total damage to plant; 0=no damage to plant; conditions: Test 2b, rate 1000 g/ha, evaluated after 13 days, score 0-5 (5=total damage, 0=no damage)
Description: as §2

[11] = test system: Alopecurus myosuroides (ALOMY); assay: B2 post-emergence herbicidal activity; design: key: 5=total damage to plant; 0=no damage to plant; conditions: Test 2b, rate 1000 g/ha, evaluated after 13 days, score 0-5 (5=total damage, 0=no damage)
Description: as §2

[12] = test system: Echinochloa crus-galli (ECHCG); assay: B1 pre-emergence herbicidal activity; design: key to Pre-emergence herbicidal activity, ECHCG: 5=total damage to plant; 0=no damage to plant; conditions: Test 1b, rate 1000 g/ha, evaluated after 13 days, score 0-5 (5=total damage, 0=no damage)
Description: as §1

| SMILES | Pre-emergence herbicidal activity, SETFA (Setaria faberi (SETFA) [1]) | Pre-emergence herbicidal activity, AVEFA (Avena fatua (AVEFA) [2]) | Pre-emergence herbicidal activity, TRAZW [3] | Pre-emergence herbicidal activity, LOLPE (Lolium perenne (LOLPE) [4]) | Pre-emergence herbicidal activity, ALOMY [5] | Control of weed species after post-emergence application, AVEFA (Avena fatua (AVEFA) [6]) | Control of weed species after post-emergence application, ECHCG [7] | Control of weed species after post-emergence application, SETFA (Setaria faberi (SETFA) [8]) | Control of weed species after post-emergence application, TRAZW [9] | Control of weed species after post-emergence application, LOLPE (Lolium perenne (LOLPE) [10]) | Control of weed species after post-emergence application, ALOMY [11] | Pre-emergence herbicidal activity, ECHCG [12] |
| --- | --- | --- | --- | --- | --- | --- | --- | --- | --- | --- | --- | --- |
| Cc1nc(-c2cncnc2)ncc1N(C)C(=O)OC(C)(C)C [Compound E3] | 4 | 4 | 0 | 1 | 1 | 4 | 4 | 5 | 1 | 3 | 2 | 4 |
| CC(C)(C)OC(=O)Nc1cnc(-c2cncc(F)c2)nc1C(F)(F)F [Compound E4, tert-butyl N-[2-(5-fluoro-3-pyridyl)-4-(trifluoromethyl)pyrimidin-5-yl]carbamate] | 4 | 4 | 0 | 1 | 0 | 4 | 4 | 5 | 1 | 3 | 1 | 4 |
| CN(C(=O)OC(C)(C)C)c1cnc(-c2cncc(F)c2)nc1C(F)(F)F [Compound E5] | 5 | 3 | 0 | 1 | 0 | 4 | 4 | 5 | 0 | 2 | 0 | 3 |
| C=CCN(C(=O)OC(C)(C)C)c1cnc(-c2cncnc2)nc1C [Compound E6] | 5 | 1 | 0 | 1 | 0 | 2 | 3 | 5 | 1 | 1 | 1 | 3 |
| Cc1nc(-c2cncnc2)ncc1NC(=O)OC(C)(C)C [Compound E7, tert-butyl N-(4-methyl-2-pyrimidin-5-yl-pyrimidin-5-yl)carbamate] | 4 | 2 | 0 | 1 | 0 | 3 | 4 | 4 | 0 | 2 | 0 | 5 |
| O=C(Nc1cnc(-c2cncc(F)c2)nc1C(F)(F)F)N1CCOCC1 [Compound E8, N-[2-(5-fluoro-3-pyridyl)-4-(trifluoromethyl)pyrimidin-5-yl]morpholine-4-carboxamide] | 4 | 2 | 0 | 1 | 0 | 3 | 4 | 5 | 1 | 3 | 1 | 3 |
| CN1CCN(c2cnc(-c3cncc(F)c3)nc2C(F)(F)F)C1=O [Compound E9, 1-[2-(5-fluoro-3-pyridyl)-4-(trifluoromethyl)pyrimidin-5-yl]-3-methyl-imidazolidin-2-one] | 2 | 1 | 0 | 1 | 0 | 2 | 4 | 3 | 1 | 1 | 0 | 1 |
| CCCOC(=O)Nc1cnc(-c2cncc(F)c2)nc1C(F)(F)F [Compound E10] | – | 2 | 0 | 1 | 0 | 3 | 4 | 5 | 1 | 1 | 0 | 4 |
| CC(C)(C)OC(=O)Nc1cnc(-c2cncnc2)nc1C(F)(F)F [Compound E11] | 4 | 2 | 0 | 1 | 1 | 3 | 4 | 4 | 1 | 2 | 0 | 3 |
| CC(C)(C)OC(=O)Nc1cnc(-c2cncc(C#N)c2)nc1C(F)(F)F [Compound E12, tert-butyl N-[2-(5-cyano-3-pyridyl)-4-(trifluoromethyl)pyrimidin-5-yl]carbamate] | 4 | 0 | 0 | 0 | 0 | 2 | 2 | 5 | 0 | 1 | 0 | 3 |
